Test results reported in publication PMC9405727, “A Setmelanotide-like Effect at MC4R Is Achieved by MC4R Dimer Separation” (Biomolecules, 2022).
Entries after “also recorded” stand apart in the source; their conditions may differ.

How the values were obtained:
[1] = biological target: MC4R/CB1R chimeric receptor Chim 5 (substitution of ICL2) (UniProt P32245); experiment: FRET or BRET; NanoBRET in living HEK293 cells co-transfected with a NanoLuc fusion (donor; written as binder) and a HaloTag fusion (acceptor, ligand 618; written as target), NL/HT DNA ratio 1:5; BRET ratio in mBU after subtraction of the no-acceptor control; delta BRET = chimera minus MC4R-WT homodimer
[2] = tested on: receptor-receptor interaction (WT, Chim 7, H158R, CB1R); experiment: Donor saturation assay (DSA, NanoBRET), specificity of receptor-receptor interaction; type: cell-based, human; settings: for Bmax: DSA; for specificity of homodimer interaction: donor saturation assay, HEK293
Description: The interaction between MC4R-WT, CB1R, and the chimeric receptors was determined using NanoBRET™ (Promega, Mannheim, Germany). The receptors were either C-terminally tagged with HaloTag (HT) as an energy acceptor or C-terminally fused with NanoLuc (NL) as an energy donor. Then, 20 h after transfection, cells were detached from the wells and centrifuged at 130× g for 5 min and the pellet was resuspended in Opti-MEM (Gibco) without phenol red, supplemented with 4% FBS (Gibco). […] The cells were then reseeded into white opaque 96-well plates (Corning, Costar) and incubated for 4–6 h at 37° and 5% CO2. […] The BRET Ratio was calculated by dividing acceptor emission by donor emission. In order to correct for background bleedthrough, the background ratio (no acceptor DMSO control) was subtracted, and the unit was changed into miliBRET (mBU).
Supplements S1: Donor Saturation Assays (DSA) investigating the specificity of receptor-receptor interaction of WT, Chim7 and H158R.
Figure S1: Donor Saturation Assays (DSA) investigating the specificity of receptor-receptor interaction of WT, Chim7 and H158R. HEK293 cells were transfected with increasing amounts of acceptor while the amount of donor was held constant. A receptor interaction is called specific, if a saturation level (Bmax) can be achieved. This is represented by a […]
hyperbolic curve. […] WT-MC4R […]
served as positive control, CB1R was included as negative control as it is known not to […]
receptor interaction, represented by the black hyperbolic curve. The negative controls depict flat behavior. (B) Homodimerization of Chim 7 is depicted next to WT-MC4R homodimer formation. Interaction of Chim7 NL with CB1R HT served as negative control.
(C) Homodimerization of H158R is depicted next to positive and negative control. […] Data […]
represent three independent experiments each performed in triplicates. Values represent

[3] = tested on: receptor homodimer (MC4R-WT, CB1R, Chim 1-7, H158R); experiment: NanoBRET receptor homodimerization (BRET ratio, ΔBRET); settings: for Relative Dimerization Compared to WT: NanoBRET data from Figure 2 (ΔBRET = chimera minus MC4R-WT), HEK293, no agonist, three independent experiments in triplicate; for homodimerization compared to MC4R-WT: NanoBRET, HEK293, n = 3 in triplicate; for nanoBRET rations, mean: difference to WT+WT, mean of the replicates
Description: Cells were maintained in minimal essential medium (MEM, Gibco, Waltham, MA, USA) supplemented with 5% fetal bovine serum (FBS, Gibco, Waltham, MA, USA) and NEAA incubated at 37 °C in humidified air containing 5% CO2. For the BRET assays, 4 × 10^5 HEK293 cells per well were seeded in 6-well plates for transfection.
For BRET assays, HEK293 cells were transfected 4–6 h after seeding. Transfection was performed using 8 µL FuGene HD (Promega, Mannheim, Germany) and 1.4 µg DNA in Opti-MEM (Gibco, Waltham, MA, USA). […] In addition, 200 ng Carrier DNA (pGEM3Z) was added.
For graphical depiction the delta BRET was calculated (3) ΔBRET=BRETRatiochimeric receptor−BRETRatioWT−MC4R

[4] = tested on: MC4R/CB1R chimeric receptors; settings: COS-7 cells; cited from earlier work
Description: Results were based on cAMP accumulation assays in COS-7 cells. […] Experiments were performed using GloSensor^TM assay enabling dynamic live cell measurement of cAMP increase. In order to compare the results of this study with results previously achieved in COS-7 cells, we used the same ...

HEK293 cells = experiment: GloSensor cAMP accumulation, isoproterenol internal control in transfected cells; type: cell-based, human
Description: Gs signaling was measured using cAMP assay GloSensor™, enabling real-time measurements of cAMP accumulation. HEK293 cells were transfected with either MC4R-WT or chimeric receptors. […] Non-PTX-treated cells received 10 µL MEM without supplements (Gibco Minimum Essential Media, Waltham, MA, USA) per well at the same time point. Bioluminescence was quantified using a Berthold Microplate Reader (Mithras LB940, Berthold Technologies GmbH and Co., Bad Wildbad, Germany). […] Cells stimulated with 1 µM isoproterenol served as an internal control. GloSensor™ results were expressed as relative luminescence units (RLU). The total cAMP formation was assessed in the time–response curve by calculating the area under the curve (AUC).

MC4R-WT = MC4R-WT (Homo sapiens, UniProt P32245); experiment: NFAT luciferase reporter gene assay (PLC activation, Gq/11 signaling), MC4R-WT; settings: MC4R-WT + PTX (50 ng/mL, 18 h before stimulation), HEK293; mean ± SEM, two to nine experiments
Description: Cells were maintained in minimal essential medium (MEM, Gibco, Waltham, MA, USA) supplemented with 5% fetal bovine serum (FBS, Gibco, Waltham, MA, USA) and NEAA incubated at 37 °C in humidified air containing 5% CO2. […] For the NFAT luciferase-based reporter gene assay, 1.5 × 10^4 cells per well were seeded in poly-L-lysine-coated (Gibco, Waltham, MA, USA) 96-well translucent plates (Falcon, Kaiserslautern, Germany) and incubated for 24 h.
For reporter gene assays, HEK293 cells were transfected 24 h after seeding with 45 ng plasmid DNA and 0.45 µL Metafectene (Biontex, Munich, Germany), according to the manufacturer’s protocol. […]
In order to determine phospholipase C (PLC) activation, luciferase-based reporter gene assays were conducted. […] Measurements were conducted by injecting 40 µL firefly luciferase substrate (Promega, Mannheim, Germany), and luminescence was determined with a plate reader (Mithras LB940). Signaling bias was analyzed using the formula described by Kenakin [27]:(4) Δlog(Emax/EC50)=log(Emax, A/EC50,A)−log(Emax, B/EC50, B) with A referring to the respective chimeric receptor and B being the reference (MC4R-WT). Emax was determined from concentration–response curves and depicts the maximal response (efficacy); EC50 describes the potency. Bias was further calculated, creating the antilog. […]

MC4R-H158R = biological target: T1, MC4R-H158R (Homo sapiens, UniProt P32245, H158R); experiment: NFAT luciferase reporter gene assay (PLC activation, Gq/11 signaling), H158R; type: cell-based
T1 construct: expressed in transfected cells; host or cells: HEK293
T1 sequence (P32245 whole entry H158R): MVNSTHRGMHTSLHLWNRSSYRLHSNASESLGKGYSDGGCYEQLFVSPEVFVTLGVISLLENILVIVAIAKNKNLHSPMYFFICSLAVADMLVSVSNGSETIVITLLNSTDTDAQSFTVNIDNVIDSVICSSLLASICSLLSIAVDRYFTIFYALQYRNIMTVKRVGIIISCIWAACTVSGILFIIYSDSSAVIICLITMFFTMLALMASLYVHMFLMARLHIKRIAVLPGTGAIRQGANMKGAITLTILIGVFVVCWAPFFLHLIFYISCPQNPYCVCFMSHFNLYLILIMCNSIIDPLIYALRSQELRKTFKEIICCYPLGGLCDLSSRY

Chain of MC4R-WT (P32245 whole entry): as the sequence (P32245 whole entry H158R) above, with R158H counted along it

MC4R/CB1R chimeric receptor Chim 5 (substitution of ICL2) (from UniProt P32245 1-332)
Relative Dimerization Compared to WT (delta BRET) [1]: -41.8

H158R: MC4R gain-of-function mutation located in ICL2 [Chim H158R]
Bmax ([2]; HEK293, run 20211107): 109.9 | Bmax ([2]; HEK293, run 20211130): 119.8 | Bmax ([2]; HEK293, run 20211202): 137.4 | specificity of homodimer interaction [2]: shows specific homodimer formation; also recorded: specific interaction | Relative Dimerization Compared to WT [3]: −28.94 | homodimerization compared to MC4R-WT [3]: significantly impaired dimerization capacities | nanoBRET rations, mean [3]: -28.94

4-Norleucine, 7-D-phenylalanine-alpha-melanocyte-stimulating hormone [NDP-alpha-MSH]
stimulated cAMP levels of chimeric receptors compared to MC4R-WT [4]: higher

CC(C)NCC(O)c1ccc(O)c(O)c1 (centres unmarked) [Isop, isoproterenol]
cAMP AUC (HEK293 cells; cells transfected with Chim5, 1 µM isoproterenol, Assay 1): 1461897 | cAMP AUC (HEK293 cells; cells transfected with Chim5, 1 µM isoproterenol, Assay 2): 430167 | cAMP AUC (HEK293 cells; cells transfected with Chim5, 1 µM isoproterenol, Assay 3): 324823 | cAMP AUC (HEK293 cells; cells transfected with Chim5, 1 µM isoproterenol, Assay 4): 256187 | cAMP AUC (HEK293 cells; cells transfected with Chim6, 1 µM isoproterenol, Assay 1): 1327867 | cAMP AUC (HEK293 cells; cells transfected with Chim6, 1 µM isoproterenol, Assay 2): 379487 | cAMP AUC (HEK293 cells; cells transfected with Chim6, 1 µM isoproterenol, Assay 3): 230900 | cAMP AUC (HEK293 cells; cells transfected with Chim6, 1 µM isoproterenol, Assay 4): 310727 | cAMP AUC (HEK293 cells; cells transfected with Chim7, 1 µM isoproterenol, Assay 1): 786920 | cAMP AUC (HEK293 cells; cells transfected with Chim7, 1 µM isoproterenol, Assay 2): 473207 | cAMP AUC (HEK293 cells; cells transfected with Chim7, 1 µM isoproterenol, Assay 3): 236040 | cAMP AUC (HEK293 cells; cells transfected with Chim7, 1 µM isoproterenol, Assay 4): 192750 | cAMP AUC (HEK293 cells; cells transfected with WT, 1 µM isoproterenol, Assay 1): 803127 | cAMP AUC (HEK293 cells; cells transfected with WT, 1 µM isoproterenol, Assay 2): 589360 | cAMP AUC (HEK293 cells; cells transfected with WT, 1 µM isoproterenol, Assay 3): 380950 | cAMP AUC (HEK293 cells; cells transfected with WT, 1 µM isoproterenol, Assay 4): 376050

MC4R-WT+MC4R-WT
nanoBRET rations, mean [3]: 0.000667

CC(=O)N[C@@H](CCCNC(=N)N)C(=O)N[C@H]1CSSC[C@@H](C(N)=O)NC(=O)[C@H](Cc2c[nH]c3ccccc23)NC(=O)[C@H](CCCNC(=N)N)NC(=O)[C@@H](Cc2ccccc2)NC(=O)[C@H](Cc2c[nH]cn2)NC(=O)[C@@H](C)NC1=O [Setmelanotide]
Emax at 1 µM (MC4R-WT): 70.26 ± 9.13 Fold over MC4R-WT Stimulated 1 µM | Emax at 1 µM (MC4R-H158R; HEK293, H158R, 6 h at 37 °C, mean ± SEM, n = 4): 135.93 ± 17.16 Fold over MC4R-WT Stimulated 1 µM | Emax (MC4R-H158R; bias Setmelanotide calculation): 135.93%

MC4R-WT: wild-type melanocortin 4 receptor
Bmax ([2]; HEK293, run 20210820): 129.2 | Bmax ([2]; HEK293, run 20210901): 118.3 | Bmax ([2]; HEK293, run 20210903): 124.8 | Bmax ([2]; HEK293, run 20210929): 127.1 | Bmax ([2]; HEK293, run 20211101): 143.5 | Bmax ([2]; HEK293, run 20211107): 109 | Bmax ([2]; HEK293, run 20211130): 120.4 | Bmax ([2]; HEK293, run 20211202): 130.7 | Bmax ([2]; HEK293, run 20211217): 122.3 | specificity of homodimer interaction [2]: specific interaction | Relative Dimerization Compared to WT [3]: 0

B1: CB1R: cannabinoid receptor type 1, negative control (protein)
chain: MKSILDGLADTTFRTITTDLLYVGSNDIQYEDIKGDMASKLGYFPQKFPLTSFRGSPFQEKMTAGDNPQLVPADQVNITEFYNKSLSSFKENEENIQCGENFMDIECFMVLNPSQQLAIAVLSLTLGTFTVLENLLVLCVILHSRSLRCRPSYHFIGSLAVADLLGSVIFVYSFIDFHVFHRKDSRNVFLFKLGGVTASFTASVGSLFLTAIDRYISIHRPLAYKRIVTRPKAVVAFCLMWTIAIVIAVLPLLGWNCEKLQSVCSDIFPHIDETYLMFWIGVTSVLLLFIVYAYMYILWKAHSHAVRMIQRGTQKSIIIHTSEDGKVQVTRPDQARMDIRLAKTLVLILVVLIICWGPLLAIMVYDVFGKMNKLIKTVFAFCSMLCLLNSTVNPIIYALRSKDLRHAFRSMFPSCEGTAQPLDNSMGDSDCLHKHANNAASVHRAAESCIKSTVKIAKVTMSVSTDTSAEAL
modifications: left off: NanoLuc, C-terminal, kept | HaloTag, C-terminal, kept
homodimerization compared to MC4R-WT [3]: decreased
